Test results as given in patent US10752612B2, “PLK4 inhibitors” (LUDWIG INSTITUTE FOR CANCER RESEARCH LTD, priority 2015, dated 2020).

What follows are compounds tested against T1, human Plk4 kinase domain (aa 2-275) (Homo sapiens, UniProt O00444) (assay: Plk4 kinase assay (ADP-Glo)). Details: Table 1.
T1 construct: purified 6×His-tagged human Plk4 kinase domain (aa 2-275); 6xHis; made in house; host or cells: E. coli
T1 sequence (O00444 2-275): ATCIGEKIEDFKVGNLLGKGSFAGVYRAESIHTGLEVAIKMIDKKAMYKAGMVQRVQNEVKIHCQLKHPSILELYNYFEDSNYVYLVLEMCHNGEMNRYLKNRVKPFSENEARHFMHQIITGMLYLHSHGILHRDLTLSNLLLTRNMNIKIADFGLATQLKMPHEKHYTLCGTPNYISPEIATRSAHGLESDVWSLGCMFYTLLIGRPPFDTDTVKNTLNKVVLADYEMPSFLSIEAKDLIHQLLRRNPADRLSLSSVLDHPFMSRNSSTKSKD
Type: biochemical
Method: Kinase assays. […] The Plk4 concentration in the final reaction was 2.5-10 nM with a final pH of 8.0. […] Reactions were allowed to proceed for 4-16 hours at 25° C. Detection was performed using ADP-Glo reagent (Promega), following manufacturer's instructions. Luminescence was measured on an Infinite M1000 plate reader (Tecan). Data were fit using Prism (GraphPad) and Kis were calculated from IC50 data using the Cheng and Prusoff equation (37) or the Copeland formalism for tight-binding inhibitors (38).

Structure (SMILES)	IC50 [nM]
CCOc1c(Nc2cc(C)[nH]n2)nc(Sc2ccc(NC(C)=O)cc2)nc1N1CCN(C)CC1	100 to 1000
CCOc1c(Nc2cc(C)[nH]n2)nc(Sc2ccc(NC(=O)C3CCCC3)cc2)nc1N1CCN(C(=O)CN(C)C)CC1	100 to 1000
COc1c(Nc2cc(C)[nH]n2)nc(Sc2ccc(NC(=O)C3CC3)cc2)nc1N1CCN(C(C)(C)C)CC1	> 1000
CCOc1c(Nc2cc(C)[nH]n2)nc(Sc2ccc(NC(C)=O)cc2)nc1N(C)CC	100 to 1000
COc1c(Nc2cc(C)[nH]n2)nc(Sc2ccc(NC(=O)C3CC3)cc2)nc1N(C)CCN(C)C	100 to 1000
CCOc1c(Nc2cc(C)[nH]n2)nc(Sc2ccc(NC(=O)C3CC3)cc2)nc1N1CCN(C2CCN(C)CC2)CC1	100 to 1000
COc1c(Nc2cc(C)[nH]n2)nc(Sc2ccc(NC(C)=O)cc2)nc1N1CCCCCC1	100 to 1000
COc1c(NCCN(C)C)nc(Sc2ccc(NC(=O)C3CC3)cc2)nc1Nc1cc(C)[nH]n1	100 to 1000
COc1c(Nc2cc(C)[nH]n2)nc(Sc2ccc(C(=O)N(C)C)cc2)nc1N1CCN(CCN(C)C)CC1	< 1000
COc1c(Nc2cc(C)[nH]n2)nc(Sc2ccc(NC(C)=O)cc2)nc1N1CCC(CCN2CCOCC2)CC1	< 1000
COCC(=O)N1CCN(c2nc(Sc3ccc(NC(C)=O)cc3)nc(Nc3cc(C)[nH]n3)c2C)CC1	< 1000
COc1c(Nc2cc(C)[nH]n2)nc(Sc2ccc(S(=O)(=O)C(C)(C)c3c(F)c(F)cc(F)c3F)cc2F)nc1N1CCC(NC(C)=O)CC1	< 1000
CCOc1c(Nc2cc(C)[nH]n2)nc(Sc2ccc(NC(=O)C3CCCC3)cc2)nc1N1CCCCC1	100 to 1000
COc1c(C)nc(Sc2ccc(S(=O)(=O)Cc3ccccc3)cc2)nc1Nc1cc(C)[nH]n1	< 1000
COc1c(Nc2cc(C)[nH]n2)nc(Sc2ccc(C#Cc3cccc([N+](=O)[O-])c3F)cc2F)nc1N1CCOCC1	< 1000
COCCN(C)c1nc(Sc2ccc(NC(=O)C3CC3)cc2)nc(Nc2cc(C)[nH]n2)c1C	< 1000
CCOc1c(NCCOC)nc(Sc2ccc(NC(=O)C3CC3)cc2)nc1Nc1cc(C)[nH]n1	100 to 1000
COc1c(Nc2cc(C)[nH]n2)nc(Sc2ccc(NC(=O)C3CCCC3)cc2)nc1N1CCNCC1	< 1000
CCN(CC)c1nc(Sc2ccc(NC(=O)C3CCCC3)cc2)nc(Nc2cc(C)[nH]n2)c1OC	100 to 1000
CCOc1c(Nc2cc(C)[nH]n2)nc(Sc2ccc(NC(C)=O)cc2)nc1N1CCN(C2CCN(C)CC2)CC1	100 to 1000
CC(=O)Nc1ccc(Sc2nc(N3CCC(O)CC3)nc(Nc3cc(C)[nH]n3)c2Cl)cc1	< 1000
CC(=O)Nc1ccc(Sc2nc(Nc3cc(C)[nH]n3)c(C)c(N3CCN(C4CCN(C)CC4)CC3)n2)cc1	< 1000
COc1c(Nc2cc(C)[nH]n2)nc(Sc2ccc(S(=O)(=O)C(C)(C)c3cccc([N+](=O)[O-])c3F)cc2F)nc1N1CC[C@H](NC(C)=O)C1	< 1000
CNC1CCN(c2nc(Sc3ccc(NC(C)=O)cc3)nc(Nc3cc(C)[nH]n3)c2C)CC1	< 1000
COC(=O)c1ccccc1CS(=O)(=O)c1ccc(Sc2nc(Nc3cc(C)[nH]n3)c(OC)c(N3CCN(CCN(C)C)CC3)n2)cc1	< 1000

Structure (SMILES)	IC50 [nM]
CCOc1c(Nc2cc(C)[nH]n2)nc(Sc2ccc(NC(=O)C3CC3)cc2)nc1N(CC)CC [drawing 123]	< 1000
COc1c(Nc2c[nH]c(C)c2)nc(Sc2ccc(NC(C)=O)cc2)nc1N1CCC(O)C1 (stereo not shown)	< 1000
COc1c(Nc2cc(C)[nH]n2)nc(Sc2ccc(S(=O)(=O)Cc3ccccc3)cc2Cl)nc1N1CCN(CCN(C)C)CC1	< 1000
COc1c(Nc2cc(C)[nH]n2)nc(Sc2ccc(NC(=O)C3CC3)cc2)nc1N1CCN(C(C)C)CC1	< 1000
CC(=O)Nc1ccc(Sc2nc(Nc3cc(C)[nH]n3)c(C)c(N3CCC(F)(F)CC3)n2)cc1	< 1000
COc1c(Nc2cc(C)[nH]n2)nc(Sc2ccc(S(=O)(=O)Cc3cccc(F)c3F)cc2)nc1N1CCN(CCN(C)C)CC1	< 1000
COc1c(Nc2cc(C)[nH]n2)nc(Sc2ccc(S(=O)(=O)Cc3ccccc3)cc2)nc1N1CCN(C)CC1	< 1000
COc1c(Nc2cc(C)[nH]n2)nc(Sc2ccc(S(=O)(=O)Cc3cccc([N+](=O)[O-])c3)cc2)nc1N1CCN(CCN(C)C)CC1	< 1000
COCC(=O)N1CCN(c2nc(SC)nc(Nc3cc(C)[nH]n3)c2C)CC1	< 1000
COc1c(Nc2cc(C)[nH]n2)nc(Sc2ccc(S(=O)(=O)C(C)(C)c3c(F)c(F)cc(F)c3F)cc2F)nc1N1CC[C@H](N(C)C)C1	< 1000
CC(=O)Nc1ccc(Sc2nc(Nc3cc(C)[nH]n3)c(C)c(N(C)C(C)C)n2)cc1	< 1000
COCCNc1nc(Sc2ccc(NC(C)=O)cc2)nc(Nc2cc(C)[nH]n2)c1C	< 1000
CC(=O)Nc1ccc(Sc2nc(Nc3cc(C)[nH]n3)c(C)c(N3CCC(N(C)C)CC3)n2)cc1	< 1000
COCC(=O)N1CCN(c2nc(Sc3ccc(N)cc3)nc(Nc3cc(C)[nH]n3)c2C)CC1	< 1000
COc1c(Nc2cc(C)[nH]n2)nc(Sc2ccc(S(=O)(=O)Nc3cccc([N+](=O)[O-])c3)cc2F)nc1N1CCOCC1	< 1000
CNCC(=O)N1CCN(c2nc(Sc3ccc(NC(C)=O)cc3)nc(Nc3cc(C)[nH]n3)c2C)CC1	< 1000
Cc1cc(Nc2nc(Sc3ccc(NC(=O)C4CC4)cc3)nc(NCCN(C)C)c2C)n[nH]1	< 1000
CCN(C)c1nc(Sc2ccc(NC(=O)C3CCCC3)cc2)nc(Nc2cc(C)[nH]n2)c1OC	100 to 1000
CCCC(=O)Nc1ccc(Sc2nc(Nc3cc(C)[nH]n3)c(C)c(N3CCN(C)CC3)n2)cc1	< 1000
CCS(=O)(=O)c1ccc(Sc2nc(Nc3cc(C)[nH]n3)c(OC)c(N3CCCCC3)n2)cc1	< 1000
CC(=O)Nc1ccc(Sc2nc(Nc3cc(C)[nH]n3)c(C)c(N3CCN(C(C)C)CC3)n2)cc1	< 1000
COCCN1CCN(c2nc(Sc3ccc(NC(C)=O)cc3)nc(Nc3cc(C)[nH]n3)c2OC)CC1	< 1000
COc1c(Nc2cc(C)[nH]n2)nc(Sc2ccc(S(=O)(=O)Cc3ccccc3)cc2)nc1N1CCO[C@H](C)C1	< 1000
COc1c(Nc2cc(C)[nH]n2)nc(Sc2ccc(S(=O)(=O)Cc3ccccc3)cc2F)nc1N1CCN(CCN(C)C)CC1	< 1000
COCC(=O)N1CCN(c2nc(Sc3ccc(NC(C)=O)cc3)nc(Nc3cc(C)[nH]n3)c2OC)CC1	< 1000

The next lines start with the values.

IC50 [nM]	Structure (SMILES)
< 1000	CC(=O)Nc1ccc(Sc2nc(Nc3cc(C)[nH]n3)c(C)c(N3CCC(O)CC3C)n2)cc1 (stereo not shown)
< 1000	Cc1cc(Nc2nc(Sc3ccc(NC(=O)C4CCCC4)cc3)nc(N(C)C)c2C)n[nH]1
< 1000	CCOc1c(Nc2cc(C)[nH]n2)nc(Sc2ccc(S(=O)(=O)Cc3ccccc3)cc2)nc1N1CCN(CCN2C3CCCC2CC3)CC1
< 1000	COc1c(Nc2cc(C)[nH]n2)nc(Sc2ccc(S(=O)(=O)C3(c4cccc([N+](=O)[O-])c4F)CC3)cc2F)nc1N1CCC(CN(C)C)CC1
< 1000	COc1c(Nc2cc(C)[nH]n2)nc(Sc2ccc(S(=O)(=O)Cc3ccccc3)cc2)nc1N1CCN(CCN(C)C)CC1
< 1000	COc1c(Nc2cc(C)[nH]n2)nc(Sc2ccc(S(=O)(=O)C(C)(C)c3cccc([N+](=O)[O-])c3F)cc2F)nc1N1CCOC[C@@H]1CO
< 1000	CSc1nc(Nc2cc(C)[nH]n2)c(C)c(N2CCOCC2)n1
< 1000	CC(=O)Nc1ccc(Sc2nc(Nc3cc(C)[nH]n3)c(C)c(N3CC=CCC3)n2)cc1
< 1000	COc1c(Nc2cc(C)[nH]n2)nc(Sc2ccc(S(=O)(=O)C(C)(C)c3cccc([N+](=O)[O-])c3F)cc2F)nc1N1CC[C@@H](N(C)C)C1
< 1000	COc1ccccc1CS(=O)(=O)c1ccc(Sc2nc(Nc3cc(C)[nH]n3)c(OC)c(N3CCN(CCN(C)C)CC3)n2)cc1
< 1000	CCCS(=O)(=O)c1ccc(Sc2nc(Nc3cc(C)[nH]n3)c(OC)c(N3CCN(CCN(C)C)CC3)n2)cc1
< 1000	COc1c(Nc2cc(C)[nH]n2)nc(Sc2ccc([N+](=O)[O-])cc2)nc1N1CCN(CCN(C)C)CC1
< 1000	CNC(=O)c1ccc(Sc2nc(Nc3cc(C)[nH]n3)c(OC)c(N3CCN(CCN(C)C)CC3)n2)cc1
< 1000	COc1c(Nc2cc(C)[nH]n2)nc(Sc2ccc(NC(C)=O)cc2)nc1N1CCN(CCS(C)(=O)=O)CC1
< 1000	Cc1cc(Nc2nc(Sc3ccc(NC(=O)C4CCCC4)cc3)nc(N3CCN(C4CCN(C)CC4)CC3)c2C)n[nH]1
< 1000	Cc1cc(Nc2nc(Sc3ccc(NC(=O)C4CC4)cc3)nc(N3CCN(CCN(C)C)CC3)c2C)n[nH]1
< 1000	CC(=O)Nc1ccc(Sc2nc3c(c(Nc4cc(C)[nH]n4)n2)C(C)CC3)cc1 (stereo not shown)
< 1000	CCN(CC)c1nc(Sc2ccc(S(=O)(=O)CC)cc2)nc(Nc2cc(C)[nH]n2)c1OC
< 1000	CSc1nc(Nc2cc(C)[nH]n2)c(C)c(N(C)C(C)C)n1
< 1000	COc1c(Nc2cc(C)[nH]n2)nc(Sc2ccc(NC(C)=O)cc2)nc1C1CCN(CCN2CCN(C)CC2)CC1
< 1000	COCCN(C)c1nc(Sc2ccc(NC(C)=O)cc2)nc(Nc2cc(C)[nH]n2)c1C
< 1000	Cc1cc(Nc2nc(Sc3ccc(NC(=O)C4CC4)cc3)nc(N(C)C)c2C)n[nH]1
< 1000	CNC1CCN(c2nc(Sc3ccc(S(=O)(=O)C(C)(C)c4cccc([N+](=O)[O-])c4F)cc3F)nc(Nc3cc(C)[nH]n3)c2OC)CC1
< 1000	COc1ccc(CS(=O)(=O)c2ccc(Sc3nc(Nc4cc(C)[nH]n4)c(OC)c(N4CCOCC4)n3)c(F)c2)cc1
< 1000	COc1c(Nc2cc(C)[nH]n2)nc(Sc2ccc(NC(=O)C3CCCC3)cc2)nc1N1CCN(CCN(C)C)CC1
< 1000	COc1c(Nc2cc(C)[nH]n2)nc(Sc2ccc(NC(C)=O)cc2)nc1N1CCOC[C@@H]1C
